A short description of series [1]: Metabolic stability in rat plasma assessed as parent compound remaining at 100 nM measured after 60 mins by HPLC analysis. The format is ADME, cell-free. The conditions noted are these: 1 h, 0.1 µM.
Series [2] concerns A-431. The series can be described thus: Antiproliferative activity against human A-431 cells assessed as reduction in cell viability incubated for 72 hrs by MTT assay. The format is functional, cell-based. The conditions noted are these: A-431, 72 h.
Series [3] relates to HCT-8. The series can be described thus: Antiproliferative activity against human HCT-8 cells assessed as reduction in cell viability incubated for 72 hrs by MTT assay. The format is functional, cell-based. A general note: Tetrazolium assays rely on reduction of a dye to a coloured formazan, in cell work by metabolically active cells.
Series [4] concerns MDA-MB-231. The series can be described thus: Antiproliferative activity against human MDA-MB-231 cells assessed as reduction in cell viability incubated for 72 hrs by MTT assay. The format is functional, cell-based. The conditions noted are these: MDA-MB-231, 72 h.
The subject of series [5] is H22. The series can be described thus: Antiproliferative activity against mouse H22 cells assessed as reduction in cell viability incubated for 72 hrs by MTT assay. In kind it is functional, cell-based. The conditions noted are these: H22, 72 h.
The subject of series [6] is L02. The series can be described thus: Cytotoxicity against human L02 cells assessed as reduction in cell viability incubated for 72 hrs by MTT assay. In kind it is cell-based. The following applies: L02, 72 h.
Series [7] relates to Bel-7402. The series can be described thus: Antiproliferative activity against human Bel-7402 cells assessed as reduction in cell viability incubated for 72 hrs by MTT assay. In kind it is functional, cell-based.
Series [8] concerns Bel-7402. The series can be described thus: Antiproliferative activity against ADR-resistant human Bel-7402 cells assessed as reduction in cell viability incubated for 72 hrs by MTT assay. The format is functional, cell-based.
Series [9] can be described thus: Resistant index, ratio of IC50 for ADR-resistant human Bel-7402 cells to IC50 for human Bel-7402 cells. In kind it is functional.
For series [10], the system named is HCT-8. The series can be described thus: Antiproliferative activity against taxol-resistant human HCT-8 cells assessed as reduction in cell viability incubated for 72 hrs by MTT assay. The format is functional, cell-based.
Series [11] can be described thus: Resistant index, ratio of IC50 for taxol-resistant human HCT-8 cells to IC50 for human HCT-8 cells. The format is functional.
Series [12] has as its system K562/VCR. The series can be described thus: Antiproliferative activity against VCR resistant human K562/VCR cells assessed as reduction in cell viability incubated for 72 hrs by MTT assay. The format is functional, cell-based.
Series [13] in a line: Resistant index, ratio of IC50 for VCR resistant human K562 cells to IC50 for human K562 cells. The format is functional.
Series [14] can be described thus: Inhibition of pig brain tubulin polymerisation incubated for 30 mins and measured every 2 mins for 60 mins by spectrophotometric method. The format is tissue-based, Sus scrofa.
The species entered for series [15] is Sus scrofa. The series can be described thus: Inhibition of [3H]colchicine binding to biotinylated pig brain tubulin at 1 uM incubated for 2 hrs in presence of GTP by competitive scintillation proximity assay. The format is tissue-based.
For series [16], the species on record is Sus scrofa. The series can be described thus: Inhibition of [3H]colchicine binding to biotinylated pig brain tubulin at 5 uM incubated for 2 hrs in presence of GTP by competitive scintillation proximity assay. In kind it is tissue-based. Background: Scintillation proximity formats need no separation of bound from free tracer.
Series [17] in a line: Metabolic stability in rat plasma assessed as parent compound remaining at 100 nM measured after 3 hrs by HPLC analysis. In kind it is ADME, cell-free. The conditions noted are these: read-out: Stabilty.
In series [18] the test system is H22. The series can be described thus: Antitumor activity against […] xenografted in ICR mouse assessed as reduction of tumor weight at 20 mg/kg/day, iv for 21 days. The format is functional. The following applies: 504 h, time 21 day.
Series [19] relates to HepG2. The series can be described thus: cells. The following applies: Homo sapiens, HepG2, 72 h.
For series [20], the system named is K562. The series can be described thus: cells. The conditions noted are these: Homo sapiens, K562, 72 h.
Description: (§1) Antiproliferative activity against human K562 cells assessed as reduction in cell viability incubated for 72 hrs by MTT assay
Series [21] concerns H22. The series can be described thus: Antitumor activity against […] xenografted in ICR mouse assessed as reduction in tumor weight at 6 mg/kg, iv dosed every other day for 21 days. In kind it is functional. The following applies: 504 h, time 21 day.
Series [22] concerns K562.
Description: as §1
Series [23] is described as follows: Aqueous solubility of the compound in phosphate buffer at pH 7.4 by HPLC-UV analysis. The format is physicochemical.
Series [24] is described as follows: Aqueous solubility of the compound in aqueous HCl at pH 2 by HPLC-UV analysis. The format is physicochemical.
Series [25] in a line: Acute toxicity in ICR mouse assessed as animal survival at 327.7 mg/kg, iv measured for 14 days. The format is organism-based. The following applies: in vivo, time 14 day.
A short description of series [26]: Acute toxicity in ICR mouse assessed as animal survival at 409.6 mg/kg, iv measured for 14 days. In kind it is organism-based. The conditions noted are these: in vivo, time 14 day.
Series [27] can be described thus: Acute toxicity in ICR mouse assessed as animal survival at 512 mg/kg, iv measured for 14 days. In kind it is organism-based. The conditions noted are these: in vivo, time 14 day.
Series [28] in a line: Acute toxicity in ICR mouse assessed as animal survival at 640 mg/kg, iv measured for 14 days. The format is organism-based. The conditions noted are these: in vivo, time 14 day.
Series [29] in a line: Acute toxicity in ICR mouse assessed as animal survival at 800 mg/kg, iv measured for 14 days. The format is organism-based. The conditions noted are these: in vivo, time 14 day.
Series [30] can be described thus: Acute toxicity in iv dosed ICR mouse. The format is organism-based. The conditions noted are these: in vivo.
A short description of series [31]: Toxicity in ICR mouse xenografted with […] cells assessed as effect on body weight at 20 mg/kg/day, iv for 21 days. In kind it is organism-based. The conditions noted are these: in vivo, 504 h, time 21 day. A general note: Xenograft models place foreign cells or tissue in a host animal.
The nature of series [32]: Toxicity in ICR mouse xenografted with […] cells assessed as effect on heart morphological changes at 20 mg/kg/day, iv for 21 days by H and E staining based assay. The format is organism-based. The conditions noted are these: in vivo, 504 h, time 21 day.
Series [33] in a line: Toxicity in ICR mouse xenografted with […] cells assessed as effect on liver morphological changes at 20 mg/kg/day, iv for 21 days by H and E staining based assay. The conditions noted are these: in vivo, 504 h, time 21 day. The format is organism-based.
Series [34] is described as follows: Toxicity in ICR mouse xenografted with […] cells assessed as effect on spleen morphological changes at 20 mg/kg/day, iv for 21 days by H and E staining based assay. The format is organism-based. The conditions noted are these: in vivo, 504 h, time 21 day.
Series [35] in a line: Toxicity in ICR mouse xenografted with […] cells assessed as effect on lungs morphological changes at 20 mg/kg/day, iv for 21 days by H and E staining based assay. The following applies: in vivo, 504 h, time 21 day. In kind it is organism-based.
Series [36] is described as follows: Toxicity in ICR mouse xenografted with […] cells assessed as effect on kidney morphological changes at 20 mg/kg/day, iv for 21 days by H and E staining based assay. The format is organism-based. The conditions noted are these: in vivo, 504 h, time 21 day.
Series [37] deals with H22. The series can be described thus: Antitumor activity against […] xenografted in ICR mouse assessed as reduction in tumor growth at 20 mg/kg/day, iv for 21 days. In kind it is functional, organism-based. The conditions noted are these: time 21.0 day.
The mark [38] stands for this setting: Homo sapiens, HCT-8, 72 h, read-out: IC50.
[39] abbreviates: Homo sapiens, Bel-7402, 72 h, read-out: IC50.

Active and inactive are the calls of the source. The calls are words filed in the database; no cut-off is given here.

The values below come from ChEMBL document CHEMBL4813973, “Discovery of novel N-benzylbenzamide derivatives as tubulin polymerization inhibitors with potent antitumor activities” (Eur J Med Chem, 2021).

As a reminder, the IC50 is the concentration at which inhibition is half-maximal. By inhibition is commonly meant the drop in the measured response relative to a control, in per cent. Usually inhibition in vivo stands for the relative decrease from the control value, in per cent. Usually solubility stands for the concentration that dissolves in the medium under given conditions. A word on the LD50: it is the dose expected to kill half of the subjects tested.

Regarding `CCOC(=O)[C@H](CCc1ccccc1)N[C@@H](C)C(=O)N1CCC[C@H]1C(=O)O` [ENALAPRIL], in series [1], the Stabilty entry is listed as “Unstable”.
Turning to `CSc1ccc(COC(=O)c2cc([N+](=O)[O-])ccc2N2CCOCC2)cc1`, the concentration for half-maximal inhibition (IC50) in series [2] came out at 10 nM; in series [3] (setting [38]), 27 nM; in series [4] it was 31 nM; in series [5] it was 25 nM; in [6], 44 nM; in [7] (setting [39]), 56 nM. For the same compound, the IC50 in [8] (setting [39]) is 268 nM; in series [10] (setting [38]), 221 nM; in [12] (Homo sapiens, K562/VCR, 72 h, read-out: IC50), 297 nM; in series [14], 2990 nM; in series [19], 33 nM; in series [20] it was 10 nM. Further, the “Ratio IC50” value in series [9] turned out to be 4.8; in series [11], 8.2; in [13], 29.7. Further, the inhibition in series [15] turned out to be 58%; in series [16], 85.7%. In addition, the Stabilty result in [1] is listed as “Stable”. Moreover, the remaining at 3 h, 0.1 µM in series [17] was 72.6%. In [18], the inhibition in vivo at 20 mg/kg/day worked out at 66.7%.
For `CC(=O)O[C@H]1C(=O)[C@@]2(C)[C@H]([C@H](OC(=O)c3ccccc3)[C@]3(O)C[C@H](OC(=O)[C@H](O)[C@@H](NC(=O)c4ccccc4)c4ccccc4)C(C)=C1C3(C)C)[C@]1(OC(C)=O)CO[C@@H]1C[C@@H]2O` [PACLITAXEL], the IC50 result in series [7] (bel-7402), in series [8] (bel-7402), in [12] (k562/vcr) and in [22] was “Not Active” each time. Moreover, in [21], the inhibition in vivo at 6 mg/kg amounted to 72.7%.
In the case of `COc1cccc2c1C(=O)c1c(O)c3c(c(O)c1C2=O)C[C@@](O)(C(=O)CO)C[C@@H]3O[C@H]1C[C@H](N)[C@H](O)[C@H](C)O1.Cl` [DOXORUBICIN HYDROCHLORIDE], the IC50 entry in series [3] (hct-8), in series [10] (hct-8), in series [12] (k562/vcr) and in series [22] was “Not Active” each time. Also, in series [9], the “Ratio IC50” value turned out to be 6.3.
As to `COc1ccc(CNC(=O)c2cc(F)ccc2N2CCOCC2)cc1OP(=O)([O-])[O-].[Na+].[Na+]`, the solubility in series [23] and in series [24] was more than 1000 µg/mL each time. The compound further showed an IC50 in series [14] of 6180 nM. In addition, the survival at 336 h in [25] was found to be 90%; in [26], 80%; in series [27], 70%; in series [28], 50%; in series [29], 20%. In series [30], the LD50 worked out at 600 mg/kg. In addition, in series [18], the inhibition in vivo at 20 mg/kg/day is 71.4%. The Activity result in series [31], in [32], in [33], in series [34], in series [35] and in series [36] was “Non-Toxic” throughout. Moreover, the outcome in [37] was Active.
